In brackets after ≈: the same amount, converted by molar mass.
Experiments:
Colon 26 [1] = experiment: Compound was tested for antitumor activity against colon 26 murine adenocarcinoma infected CDF1 mice when administered at a dose of 4000 ug/Kg intravenously; assay type: functional; conditions: Mus musculus, Colon 26, iv; read-out: TGI
HeLa = experiment: Concentration required to inhibit the growth of HeLaS3 cells; assay type: functional, cell-based, Homo sapiens
Colon 26 [2] = experiment: Compound was tested for antitumor activity against colon 26 murine adenocarcinoma infected CDF1 mice when administered at a dose of 15.6 ug/Kg intravenously; assay type: functional; conditions: Mus musculus, Colon 26, iv; read-out: TGI
Colon 26 [3] = experiment: Compound was tested for antitumor activity against colon 26 murine adenocarcinoma infected CDF1 mice when administered at a dose of 0.977 ug/Kg intravenously; assay type: functional; conditions: Mus musculus, Colon 26, iv; read-out: TGI
Colon 26 [4] = experiment: Compound was tested for antitumor activity against colon 26 murine adenocarcinoma infected CDF1 mice when administered at a dose of 31.3 ug/Kg intravenously; assay type: functional; conditions: Mus musculus, Colon 26, iv; read-out: TGI
[5] = Homo sapiens, HeLa, read-out: IC50

SMILES: COC(=O)c1c(C(F)(F)F)[nH]c2c(O)cc3c(c12)[C@H](CCl)CN3C(=O)c1cc2cc(Cc3ccc4[nH]c(C(=O)N5C[C@@H](CCl)c6c5cc(O)c5[nH]c(C(F)(F)F)c(C(=O)OC)c65)cc4c3)ccc2[nH]1
- inhibition in vivo at 4 mg/kg (Colon 26 [1]): 80%
- IC50 (HeLa; [5]): 33 ng/mL (≈ 33.1 nM)

SMILES: Cc1c[nH]c2c(O)cc3c(c12)[C@H](CCl)CN3C(=O)c1cc2cc(NC(=O)Nc3ccc4[nH]c(C(=O)N5C[C@@H](CCl)c6c5cc(O)c5[nH]cc(C)c65)cc4c3)ccc2[nH]1 [BIZELESIN]
- inhibition in vivo at 0.0156 mg/kg (Colon 26 [2]): 90%
- IC50 (HeLa; [5]): 0.06 ng/mL (≈ 0.0736 nM)

SMILES: COC(=O)c1c(C(F)(F)F)[nH]c2c(O)cc3c(c12)[C@H](CCl)CN3C(=O)c1cc2cc(Oc3ccc4[nH]c(C(=O)N5C[C@@H](CCl)c6c5cc(O)c5[nH]c(C(F)(F)F)c(C(=O)OC)c65)cc4c3)ccc2[nH]1
- inhibition in vivo at 4 mg/kg (Colon 26 [1]): 88%
- IC50 (HeLa; [5]): 22 ng/mL (≈ 22.1 nM)

SMILES: COC(=O)c1c(C(F)(F)F)[nH]c2c(O)cc3c(c12)[C@H](CCl)CN3C(=O)c1cc2cc(-c3ccc4[nH]c(C(=O)N5C[C@@H](CCl)c6c5cc(O)c5[nH]c(C(F)(F)F)c(C(=O)OC)c65)cc4c3)ccc2[nH]1
- inhibition in vivo at 0.000977 mg/kg (Colon 26 [3]): 84%
- IC50 (HeLa; hela): 0.0049 ng/mL (≈ 0.00499 nM)

SMILES: COC(=O)c1c(C(F)(F)F)[nH]c2c(O)cc3c(c12)[C@H](CCl)CN3C(=O)c1cc2cc(CCc3ccc4[nH]c(C(=O)N5C[C@@H](CCl)c6c5cc(O)c5[nH]c(C(F)(F)F)c(C(=O)OC)c65)cc4c3)ccc2[nH]1
- inhibition in vivo at 0.0313 mg/kg (Colon 26 [4]): 87%
- IC50 (HeLa; [5]): 0.21 ng/mL (≈ 0.208 nM)

SMILES: COC(=O)c1c(C(F)(F)F)[nH]c2c(O)cc3c(c12)[C@H](CCl)CN3C(=O)c1cc2cc(C#Cc3ccc4[nH]c(C(=O)N5C[C@@H](CCl)c6c5cc(O)c5[nH]c(C(F)(F)F)c(C(=O)OC)c65)cc4c3)ccc2[nH]1
- inhibition in vivo at 0.0313 mg/kg (Colon 26 [4]): 82%
- IC50 (HeLa; [5]): 0.35 ng/mL (≈ 0.348 nM)

SMILES: COC(=O)c1c(C(F)(F)F)[nH]c2c(O)cc3c(c12)[C@H](CCl)CN3C(=O)c1cc2cc(NC(=O)Nc3ccc4[nH]c(C(=O)N5C[C@@H](CCl)c6c5cc(O)c5[nH]c(C(F)(F)F)c(C(=O)OC)c65)cc4c3)ccc2[nH]1
- inhibition in vivo at 0.0156 mg/kg (Colon 26 [2]): 94%
- IC50 (HeLa; [5]): 0.091 ng/mL (≈ 0.0875 nM)
